Reference: PMC8819291, “Adaptively evolved human oral actinomyces‐sourced defensins show therapeutic potential” (EMBO Molecular Medicine, 2021)
Where two headings read alike, the source gives them in different places. Marks after values point to notes of the source that are not given here. Where a SMILES comes first, the peptide text is derived from it. Bridges are numbered along the chain shown (N, C = ends).

Legend:
[1] = tested on: Bacillus megaterium CGMCC 1.0459; test: Inhibition-zone assay (lethal concentration); assay type: cell-based; conditions: LB, 37°C
Description: (§1) Bacterial media used here included: Luria‐Bertani (LB) medium, THY medium (30 g Todd Hewitt broth and 5 g Yeast extract per liter), and tryptic soy broth (TSB) (Oxoid, Basingstoke, UK); Broth medium and brain–heart infusion (BHI) medium (Beijing Landbridge technology Limited by Share Ltd., Beijing, China); Potato dextrose (PD) medium (self‐prepared).
(§2) In brief, an overnight bacterial culture from a single colony was inoculated into fresh medium and grew to late log‐phase. A 10‐μl aliquot of each culture was diluted in 6‐ml pre‐heated medium containing 0.8% agar. The mixture was spread on a 9‐cm Petri dish, giving a depth of 1 mm. After settling, 3‐mm wells were punched in the plate and then 2‐μl peptide samples of different concentrations were added to each well. The agar plates were incubated overnight at indicated temperatures (Table EV4). A lethal concentration (C L ) was calculated from a plot of d^2 against log n, where d is the diameter (in cm) and n is the amount of sample applied in the well (in nmol). The plot is linear, and thus C L can be calculated from the slope (k) and the intercept (m) of this plot.

[2] = tested on: Bacillus subtilis CGMCC 1.2428; test: Inhibition-zone assay (lethal concentration); assay type: cell-based; conditions: LB, 37°C
Description: as §1, §2

[3] = tested on: Enterococcus faecalis V583 (ATCC 700802); test: Inhibition-zone assay (lethal concentration); assay type: cell-based; conditions: BHI, 37°C
Description: as §1, §2

[4] = tested on: Lysinibacillus fusiformis; test: Inhibition-zone assay (lethal concentration); assay type: cell-based; conditions: Broth Medium, 37°C
Description: as §1, §2

[5] = tested on: Methicillin‐resistant Staphylococcus aureus P1374; test: Inhibition-zone assay (lethal concentration); assay type: cell-based; conditions: Broth Medium, 37°C
Description: as §1, §2

[6] = tested on: Staphylococcus aureus CGMCC 1.89; test: Inhibition-zone assay (lethal concentration); assay type: cell-based; conditions: Broth Medium, 37°C
Description: as §1, §2

[7] = tested on: Staphylococcus aureus J685; test: Inhibition-zone assay (lethal concentration); assay type: cell-based; conditions: Broth Medium, 37°C
Description: as §1, §2

[8] = tested on: Staphylococcus aureus J698; test: Inhibition-zone assay (lethal concentration); assay type: cell-based; conditions: Broth Medium, 37°C
Description: as §1, §2

[9] = tested on: Staphylococcus aureus J700; test: Inhibition-zone assay (lethal concentration); assay type: cell-based; conditions: Broth Medium, 37°C
Description: as §1, §2

[10] = tested on: Staphylococcus aureus J706; test: Inhibition-zone assay (lethal concentration); assay type: cell-based; conditions: Broth Medium, 37°C
Description: as §1, §2

[11] = tested on: Staphylococcus aureus J708; test: Inhibition-zone assay (lethal concentration); assay type: cell-based; conditions: Broth Medium, 37°C
Description: as §1, §2

[12] = tested on: Staphylococcus aureus J710; test: Inhibition-zone assay (lethal concentration); assay type: cell-based; conditions: Broth Medium, 37°C
Description: as §1, §2

[13] = tested on: Streptococcus mutans CGMCC 1.2499 (ATCC 25175); test: Inhibition-zone assay (lethal concentration); assay type: cell-based; conditions: Broth Medium, 37°C
Description: as §1, §2

[14] = tested on: Streptococcus pneumoniae D39; test: Inhibition-zone assay (lethal concentration); assay type: cell-based; conditions: THY, 5% CO2, 37°C
Description: as §1, §2

[15] = tested on: Streptococcus pneumoniae R6; test: Inhibition-zone assay (lethal concentration); assay type: cell-based; conditions: THY, 5% CO2, 37°C
Description: as §1, §2

[16] = tested on: Streptococcus pneumoniae ST556; test: Inhibition-zone assay (lethal concentration); assay type: cell-based; conditions: THY, 5% CO2, 37°C
Description: as §1, §2

[17] = tested on: Streptococcus pneumoniae TIGR4; test: Inhibition-zone assay (lethal concentration); assay type: cell-based; conditions: THY, 5% CO2, 37°C
Description: as §1, §2

[18] = tested on: Streptococcus salivarius CGMCC 1.2498 (ATCC 7073); test: Inhibition-zone assay (lethal concentration); assay type: cell-based; conditions: Broth Medium, 37°C
Description: as §1, §2

[19] = tested on: Streptococcus sanguinis CGMCC 1.2497 (ATCC 49295); test: Inhibition-zone assay (lethal concentration); assay type: cell-based; conditions: Broth Medium, 37°C
Description: as §1, §2

[20] = tested on: Streptomyces griseus NBRC 13350; test: Inhibition-zone assay (lethal concentration); assay type: cell-based; conditions: PD, 28°C
Description: as §1, §2

[21] = tested on: Streptomyces scabiei CGMCC 4.1765 (ATCC 49173); test: Inhibition-zone assay (lethal concentration); assay type: cell-based; conditions: Tryptone Soy Broth (TSB), 30°C
Description: as §1, §2

[22] = tested on: penicillin‐resistant Staphylococcus aureus P1383; test: Inhibition-zone assay (lethal concentration); assay type: cell-based; conditions: Broth Medium, 37°C
Description: as §1, §2

[23] = tested on: penicillin‐sensitive Staphylococcus epidermidis P1111; test: Inhibition-zone assay (lethal concentration); assay type: cell-based; conditions: Broth Medium, 37°C
Description: as §1, §2

[24] = tested on: SSAN (Streptococcus sanguinis); test: Analysis of lysis in liquid culture; assay type: cell-based; conditions: culture at OD600 of 0.2, 5–10 μM AMSIN, 24 h
[25] = SPR binding of UMP to immobilized AMSIN (Biacore T100); conditions: read-out: Binding affinity of AMSIN to UMP (K D); AMSIN immobilized on CM5, UMP 100–3.125 μM in PBS-T pH 7.5, 25°C; 1:1 Langmuir model
Procedure: Surface plasmon resonance (SPR) analysis was performed on a Biacore T100 instrument with a CM‐5 sensor chip (GE Healthcare Life Sciences, USA) at 25°C. An amide coupling chemistry strategy was used to immobilize AMSIN on the chip surface. […] Non‐reacted carboxylic groups on the sensor chip surface were blocked by ethanolamine‐HCl (1 M, pH 8.5) for 420 s at a flow rate of 10 μl/min. The final immobilization level was 1,778 RUs. For detecting binding, the analyte UMP was serially diluted twofold with the running buffer PBS‐T (PBS buffer containing 0.05% Tween 20, pH 7.5) at final concentrations of 100–3.125 μM. Then, they were used to flow over the chip surface at a flow rate of 30 μl/min for 60 s. Dissociation was monitored for 120 s by injecting the running buffer suddenly after samples at a flow rate of 30 μl/min for complete removal of specifically and non‐specifically bound biological material from the surface. Responses were measured in RUs as the difference between active and reference channels. The binding curve was fitted with the software BIAevaluation v2.0.1 using 1:1 Langmuir binding model.

HL‐60 = test: Cytotoxicity assay (CCK-8); assay type: cell-based, human; conditions: 72 h
Procedure: Cells were cultured at 37°C in 5% CO2: 95% air incubator in Minimum Essential Medium (MEM) supplemented with 10% (v/v) fetal bovine serum (FBS). Cells were seeded at a density of 7 × 10^3 cells per well in 96‐well plates and incubated for 24 h. Media were then replaced with 200 μl of media containing various concentrations of peptides. The cells were incubated for 72 h and cytotoxicity was assessed with CCK‐8 Kits (Dojindo Molecular Technologies, Tokyo, Japan). Absorbance was detected at 450 nm with the TECAN Infinite M200 microplate reader (Tecan, Durham, USA).

salmon sperm DNA = conditions: 1.0 nmol AMSIN + salmon sperm DNA 6.6 mg/ml
Procedure: The rationality behind this experiment is that if a reduction in the inhibition‐zone size in the presence of DNA, it would indicate that the peptide binding to the DNA causes the loss of antibacterial activity. […] Inhibition zones were recorded and compared with the control without the DNA.

For `CC[C@H](C)[C@@H]1NC(=O)[C@H](CCCCN)NC(=O)CNC(=O)[C@H](CCCNC(=N)N)NC(=O)[C@@H]2CSSC[C@H](NC(=O)CNC(=O)[C@H](Cc3ccccc3)NC(=O)CN)C(=O)N3CCC[C@H]3C(=O)N[C@@H](Cc3c[nH]c4ccccc34)C(=O)N[C@@H](CC(N)=O)C(=O)N[C@@H](C)C(=O)N[C@@H](Cc3ccc(O)cc3)C(=O)N[C@@H](CCC(=O)O)C(=O)N[C@H]3CSSC[C@H](NC(=O)[C@H]([C@@H](C)O)NC(=O)[C@H](CCC(N)=O)NC(=O)[C@H](CCCNC(=N)N)NC1=O)C(=O)N[C@@H](Cc1c[nH]cn1)C(=O)N[C@H](C(=O)N[C@@H](Cc1ccc(O)cc1)C(=O)O)CSSC[C@H](NC(=O)[C@H](Cc1c[nH]cn1)NC(=O)[C@H](CCCNC(=N)N)NC(=O)[C@H](CC(=O)O)NC3=O)C(=O)N[C@@H](C(C)C)C(=O)N[C@@H](CO)C(=O)N[C@@H](CCCCN)C(=O)NCC(=O)N[C@@H](Cc1ccc(O)cc1)C(=O)N[C@@H]([C@@H](C)O)C(=O)NCC(=O)NCC(=O)N[C@@H](CC(N)=O)C(=O)N2` [AMSIN] (H-GFGCPWNAYECDRHCVSKGYTGGNCRGKIRQTCHCY-OH; disulfide 4-25, 11-33, 15-35; N-terminus and C-terminus assumed), the “Lethal concentration (C L)” value ([1]; AMSIN alone) was 0.11 µM, the “Lethal concentration (C L)” value ([1]; In combination with HNP1&2) was 0.038 ^a µM and the “Lethal concentration (C L)” value ([1]; In combination with hLZc) was 0.045 ^b µM. The “Lethal concentration (C L)” value [2] was 1.00 µM, the “Lethal concentration (C L)” value [3] was 4.65 µM and the “Lethal concentration (C L)” value [4] was 0.27 µM. The “Lethal concentration (C L)” value [5] was 0.62 µM, the “Lethal concentration (C L)” value [6] was 5.20 µM and the “Lethal concentration (C L)” value [7] was 10.40 µM. For the same molecule, the “Lethal concentration (C L)” value [8] was 5.20 µM, the “Lethal concentration (C L)” value [9] was 5.20 µM and the “Lethal concentration (C L)” value [10] was 5.20 µM. For the same molecule, the “Lethal concentration (C L)” value [11] was 1.14 µM, the “Lethal concentration (C L)” value [12] was 2.60 µM and the “Lethal concentration (C L)” value ([13]; AMSIN alone) was 1.01 µM. The “Lethal concentration (C L)” value ([13]; In combination with HNP1&2) was 0.38 ^a µM, the “Lethal concentration (C L)” value ([13]; In combination with hLZc) was 0.56 ^b µM and the “Lethal concentration (C L)” value [14] was 0.09 µM. The “Lethal concentration (C L)” value [15] was 0.14 µM, the “Lethal concentration (C L)” value [16] was 0.14 µM and the “Lethal concentration (C L)” value [17] was 0.14 µM. The “Lethal concentration (C L)” value [18] was 0.49 µM, the “Lethal concentration (C L)” value [19] was 1.41 µM and the “Lethal concentration (C L)” value [20] was 2.89 µM. The “Lethal concentration (C L)” value [21] was 2.01 µM, the “Lethal concentration (C L)” value [22] was 4.28 µM and the “Lethal concentration (C L)” value [23] was 5.20 µM. For the same molecule, the Lysis of bacteria [24] was “lytic effect”, the Kd [25] was 24 µM and the “Cellular variability of HL-60 (%)” value (HL‐60; 25 μg/mL, replicate 1) was 97%. The “Cellular variability of HL-60 (%)” value (HL‐60; 25 μg/mL, replicate 2) was 101%, the “Cellular variability of HL-60 (%)” value (HL‐60; 25 μg/mL, replicate 3) was 108% and the “Cellular variability of HL-60 (%)” value (HL‐60; 50 μg/mL, replicate 1) was 97%. For the same molecule, the “Cellular variability of HL-60 (%)” value (HL‐60; 50 μg/mL, replicate 2) was 100%, the “Cellular variability of HL-60 (%)” value (HL‐60; 50 μg/mL, replicate 3) was 103% and the “Cellular variability of HL-60 (%)” value (HL‐60; 100 μg/mL, replicate 1) was 97%. For the same molecule, the “Cellular variability of HL-60 (%)” value (HL‐60; 100 μg/mL, replicate 2) was 102%, the “Cellular variability of HL-60 (%)” value (HL‐60; 100 μg/mL, replicate 3) was 106% and the Inhibition zone (salmon sperm DNA; replicate 1) was 9.5 mm. For the same molecule, the Inhibition zone (salmon sperm DNA; replicate 2) was 10 mm and the Inhibition zone (salmon sperm DNA; replicate 3) was 9.5 mm.
